The values below are quoted from earlier work in patent publication US8895729B2, “Process for making thienopyrimidine compounds” (Genentech, Inc., priority 2012, dated 2014).

The subject of data set [1] is MDA-MB-361.1 breast cancer xenograft.
For data set [2] the following is noted: single oral dose.
Data set [3] deals with receptor screening assay (n=68). Particulars: GDC-0980=10 microM.
Data set [4] has as its system MCF7.1 E545K breast xenograft. Particulars: mouse MCF7.1 E545K breast xenograft; 25 to 150 mg/kg qd po.
Data set [5] has as its system MCF7-neo/HER2 cell line.
The test system of data set [6] is PC3 PTEN-prostate xenograft. The following applies: mouse PC3 PTEN- prostate xenograft; 25 to 150 mg/kg qd po.
Data set [7] deals with xenograft cancer models; breast, ovarian, lung, and prostate.
Assay in data set [8]: not given
This is another data set of the same source.

As for `Cc1c(CN2CCN(C(=O)[C@H](C)O)CC2)sc2c(N3CCOCC3)nc(-c3cnc(N)nc3)nc12` [GDC-0980, (S)-1-(4-((2-(2-aminopyrimidin-5-yl)-7-methyl-4-morpholinothieno[3,2-d]pyrimidin-6-yl)methyl)piperazin-1-yl)-2-hydroxypropan-1-one], the “stability in human microsomes” value is “stable”. In data set [1], the “minimum dose producing significant growth inhibition” value is 1.0 mg/kg QD. Besides, in [2], the AUC dose dependence result is “dose-proportional increases” and the Cmax dose dependence entry is “dose-proportional increases”. The “responses in a receptor screening assay” value in data set [3] is recorded as “did not elicit significant responses”. Besides, the “efficacy in xenograft model” value in data set [4] was “efficacious”. In addition, the IC50 in data set [5] was 320 nM. Moreover, the “efficacy in xenograft model” value in data set [6] is given as “efficacious”. The “activity in preclinical xenograft cancer models” value in data set [7] is recorded as “broad activity”. For the same molecule, in [8], the “stability in human hepatocytes” value is given as “stable”.
